Results as given in patent publication US5242945A, “Tetronic and thiotetronic acid derivatives as phospholipase A2 inhibitors” (American Home Products Corporation, priority 1991, dated 1993).

Experiments:
[1] = system: purified PLA2, from the diamond back cotton mouth snake (A. piscivorus piscivorus); assay: in vivo PLA2 murine paw edema assay; parameters: species or system A. piscivorus piscivorus PLA2 in CD-1 mice
[2] = system: purified PLA2, from the diamond back cotton mouth snake (A. piscivorus piscivorus); assay: in vivo PLA2 murine paw edema assay; parameters: species or system A. piscivorus piscivorus PLA2 in CD-1 mice; remark: listed apart in the source
[3] = system: lipoxygenase and/or cyclooxygenase pathways of arachidonic acid metabolism; assay: in vivo murine zymosan peritonitis assay; parameters: species or system mouse (CD-1); conditions: 100 mg/kg p.o.; negative values denote potentiation
Method: The compounds of the invention are evaluated for their ability to inhibit the lipoxygenase and/or cyclooxygenase pathways of arachidonic acid metabolism in the in vivo murine zymosan peritonitis assay.
Male CD-1 mice (8 weeks old) are placed in plastic boxes in groups of six. Animals are injected with 1 mL i.p. of either 1% zymosan in pyrogen free 0.9% saline or saline (unstimulated control). Compounds are dosed orally 1 hour prior to zymosan injection. Twenty minutes after zymosan injection, the mice are asphyxiated by CO2 inhalation and the peritoneal cavity is lavaged with 2 mL ice cold Hanks Balanced Salt Solution (HBSS) without CaCl2, MgSO4. 7H2 O and MgCl2.6H2 O. Peritoneal lavage fluid from each mouse is removed by syringe and placed in 5 mL plastic test tubes put on ice and volume is noted. Preparation of samples for evaluation by ELISA is as follows: Samples are centrifuged at 800 xg for 15 minutes; 1 mL of the supernatant is added to 8 mL ice cold methanol and kept at -70° C. overnight to precipitate protein; and samples are then centrifuged at 800 xg for 15 minutes, followed by a drying procedure in a Savant speed vac concentrator. The samples are reconstituted with 1 mL ice cold ELISA buffer and stored at -70° C. until assayed. The assay for eicosanoids (LTC4 and 6-keto-PGF1α) is performed according to conventional ELISA procedures.
Compounds to be tested orally are suspended in 0.5% Tween 80. Compounds to be tested intraperitoneally are suspended in 0.5% methylcellulose in 0.9% saline.
The total metabolite level in lavage fluid/mouse is calculated and the significance is determined by a one-way analysis of variance with LSD comparisons to control (p≤0.05). Drug effects are expressed as a percent change from control values.

Structure (SMILES)	% Change in Edema 10 min ([1]; 1 mg/kg i.p.) [%]	% Change in Edema 30 min ([1]; 1 mg/kg i.p.) [%]	% Change in Edema 60 min ([1]; 1 mg/kg i.p.) [%]	% Change in Edema 10 min ([1]; 10 mg/kg i.p.) [%]	% Change in Edema 30 min ([1]; 10 mg/kg i.p.) [%]	% Change in Edema 60 min ([1]; 10 mg/kg i.p.) [%]	% Change in Edema 10 min ([1]; 200 mg/kg p.o.) [%]	% Change in Edema 30 min ([1]; 200 mg/kg p.o.) [%]	% Change in Edema 60 min ([1]; 200 mg/kg p.o.) [%]	% Change in Edema 10 min ([2]; 10 mg/kg i.v.) [%]	% Change in Edema 30 min ([2]; 10 mg/kg i.v.) [%]	% Change in Edema 60 min ([2]; 10 mg/kg i.v.) [%]	% Change in Edema 10 min ([2]; 100 mg/kg p.o.) [%]	% Change in Edema 30 min ([2]; 100 mg/kg p.o.)	% Change in Edema 60 min ([2]; 100 mg/kg p.o.)	% Inhibition 6-keto-PGF [3] [%]	% Inhibition LTC4 [3] [%]
CCCC/C=C\CCCCCCCC(=O)C1=C(O)COC1=O [Example 25, 4-Hydroxy-3-((Z)-1-oxo-9-tetradecenyl)-2(5H)-furanone]	-50	-65	-1	-38	-44	-18	-40	-33	-43								
CCCCCCCC/C=C\CCCCCCCC(=O)C1=C(O)COC1=O [Example 9, (Z)-4-Hydroxy-3-(1-oxo-9-octadecenyl)-2(5H)-furanone]										-48	-42	-48	-1	+1.5%	+7.1%		
CCCCCCCCCC(=O)C1=C(O)COC1=O [Example 1, 4-Hydroxy-3-(1-oxodecyl)-2(5H)-furanone]										-51	-43	-23	-36	-29%	-29%	-58	-58
